Numbers after ± are expanded uncertainties.
Key:
[1] = refractive index (Na D-line) (dimensionless); settings: 101.33 kPa, Liquid, Standard Abbe refractometry
[2] = Liquid; for viscosity / speed of sound / mass density / electrical conductivity: 101 kPa; for speed of sound: Pulse-echo method; for mass density: Vibrating tube method; for vapor or sublimation pressure: Ebulliometric method (Recirculating still); for electrical conductivity: Crison conductimeter (model GLP31)
[3] = xn = mol fraction of the nth substance listed; settings: 101 kPa, Liquid, x2 = 0; for speed of sound: Pulse-echo method; for mass density: Vibrating tube method
[4] = refractive index (Na D-line) (dimensionless); xn = mol fraction of the nth substance listed; settings: 101 kPa, Liquid, Standard Abbe refractometry, x2 = 0

| Structure (SMILES) | refractive index ([1]; 293.15 K) | refractive index ([1]; 303.15 K) | refractive index ([1]; 313.15 K) | refractive index ([1]; 323.15 K) | viscosity ([2]; 293.15 K) | speed of sound ([2]; 293.15 K) | mass density ([2]; 293.15 K) | viscosity ([2]; 303.15 K) | speed of sound ([2]; 303.15 K) | mass density ([2]; 303.15 K) | viscosity ([2]; 313.15 K) | speed of sound ([2]; 313.15 K) | mass density ([2]; 313.15 K) | viscosity ([2]; 323.15 K) | speed of sound ([2]; 323.15 K) | mass density ([2]; 323.15 K) | further results |
| --- | --- | --- | --- | --- | --- | --- | --- | --- | --- | --- | --- | --- | --- | --- | --- | --- | --- |
| CO [methanol] | 1.32843 ± 0.0004 | 1.32433 ± 0.0004 | 1.32015 ± 0.0004 | 1.3167 ± 0.0004 | 0.5833 ± 0.016 mPa·s | 1118.8 ± 1.1 m/s | 791.243 ± 0.15 kg/m3 | 0.507 ± 0.014 mPa·s | 1086 ± 1.1 m/s | 781.813 ± 0.15 kg/m3 | 0.4438 ± 0.013 mPa·s | 1053.5 ± 1.1 m/s | 772.287 ± 0.15 kg/m3 | 0.3873 ± 0.011 mPa·s | 1021.5 ± 1.1 m/s | 762.828 ± 0.15 kg/m3 | vapor or sublimation pressure ([2]; 303.15 K): 21.93 ± 0.14 kPa; vapor or sublimation pressure ([2]; 323.15 K): 55.78 ± 0.27 kPa |
| CO [methanol] + CCC[n+]1ccccc1.F[B-](F)(F)F |  |  |  |  |  |  |  |  |  |  |  |  |  |  |  |  | speed of sound ([3]; 293.15 K): 1118.8 ± 1.1 m/s; mass density ([3]; 293.15 K): 791.243 ± 0.15 kg/m3; viscosity ([3]; 293.15 K): 0.5833 ± 0.016 mPa·s; speed of sound ([3]; 303.15 K): 1086 ± 1.1 m/s; mass density ([3]; 303.15 K): 781.813 ± 0.15 kg/m3; viscosity ([3]; 303.15 K): 0.507 ± 0.014 mPa·s; speed of sound ([3]; 313.15 K): 1053.5 ± 1.1 m/s; mass density ([3]; 313.15 K): 772.287 ± 0.15 kg/m3; viscosity ([3]; 313.15 K): 0.4438 ± 0.013 mPa·s; speed of sound ([3]; 323.15 K): 1021.5 ± 1.1 m/s; mass density ([3]; 323.15 K): 762.828 ± 0.15 kg/m3; viscosity ([3]; 323.15 K): 0.3873 ± 0.011 mPa·s; refractive index ([4]; 293.15 K): 1.32843 ± 0.0004; refractive index ([4]; 303.15 K): 1.32433 ± 0.0004; refractive index ([4]; 313.15 K): 1.32015 ± 0.0004; refractive index ([4]; 323.15 K): 1.3167 ± 0.0004 |
| CCC[n+]1ccccc1.F[B-](F)(F)F [1-propylpyridinium tetrafluoroborate] | 1.44588 ± 0.00057 | 1.44322 ± 0.00057 | 1.44057 ± 0.00057 | 1.43792 ± 0.00057 | 160 ± 13 mPa·s | 1653.9 ± 2.4 m/s | 1256.67 ± 1.4 kg/m3 | 90.75 ± 3.8 mPa·s | 1629.8 ± 2.4 m/s | 1249.54 ± 1.4 kg/m3 | 56.02 ± 0.89 mPa·s | 1606.3 ± 2.4 m/s | 1242.43 ± 1.4 kg/m3 | 36.99 ± 0.76 mPa·s | 1583.3 ± 2.3 m/s | 1235.31 ± 1.4 kg/m3 | electrical conductivity ([2]; 293.15 K): 0.302 ± 0.006 S/m; electrical conductivity ([2]; 303.15 K): 0.516 ± 0.01 S/m; electrical conductivity ([2]; 313.15 K): 0.799 ± 0.016 S/m; electrical conductivity ([2]; 323.15 K): 1.15 ± 0.023 S/m |
